Experiments:
CDK6/cyclin D3 = CDK6/cyclin D3 (Homo sapiens, UniProt Q00534); assay: Assay of kinase activity (ADP-Glo); assay type: biochemical; conditions: kinase inhibitory activity
Method in brief: (§1)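 Human CDK6/cyclin D3 and CDK9/cyclin T1 preincubated 10 min at 25 °C with compound in 50 mM Hepes, 10 mM MgCl2, 0.01% Brij35, 2 mM DTT, then reacted 60 min at 25 °C with substrate and ATP. ADP formed measured by ADP-Glo luminescence; IC50 from nonlinear concentration-response fitting.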

CDK9/cyclin T1 = CDK9/cyclin T1 (Homo sapiens, UniProt P50750); assay: Assay of kinase activity (ADP-Glo); assay type: biochemical; conditions: kinase inhibitory activity
Chain of CDK9/cyclin T1 (P50750 whole entry, species assumed): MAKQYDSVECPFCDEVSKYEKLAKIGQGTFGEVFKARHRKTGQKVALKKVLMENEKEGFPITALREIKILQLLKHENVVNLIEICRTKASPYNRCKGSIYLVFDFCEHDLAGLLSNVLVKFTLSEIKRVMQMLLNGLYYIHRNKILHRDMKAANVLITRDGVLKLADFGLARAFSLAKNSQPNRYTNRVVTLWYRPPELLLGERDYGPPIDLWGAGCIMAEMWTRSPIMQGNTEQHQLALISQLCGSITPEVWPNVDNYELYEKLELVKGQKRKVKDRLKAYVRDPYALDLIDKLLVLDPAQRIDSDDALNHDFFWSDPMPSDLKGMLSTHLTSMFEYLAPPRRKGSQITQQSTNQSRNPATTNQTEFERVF
Chain of CDK9/cyclin T1 (O60563 whole entry partner, species assumed): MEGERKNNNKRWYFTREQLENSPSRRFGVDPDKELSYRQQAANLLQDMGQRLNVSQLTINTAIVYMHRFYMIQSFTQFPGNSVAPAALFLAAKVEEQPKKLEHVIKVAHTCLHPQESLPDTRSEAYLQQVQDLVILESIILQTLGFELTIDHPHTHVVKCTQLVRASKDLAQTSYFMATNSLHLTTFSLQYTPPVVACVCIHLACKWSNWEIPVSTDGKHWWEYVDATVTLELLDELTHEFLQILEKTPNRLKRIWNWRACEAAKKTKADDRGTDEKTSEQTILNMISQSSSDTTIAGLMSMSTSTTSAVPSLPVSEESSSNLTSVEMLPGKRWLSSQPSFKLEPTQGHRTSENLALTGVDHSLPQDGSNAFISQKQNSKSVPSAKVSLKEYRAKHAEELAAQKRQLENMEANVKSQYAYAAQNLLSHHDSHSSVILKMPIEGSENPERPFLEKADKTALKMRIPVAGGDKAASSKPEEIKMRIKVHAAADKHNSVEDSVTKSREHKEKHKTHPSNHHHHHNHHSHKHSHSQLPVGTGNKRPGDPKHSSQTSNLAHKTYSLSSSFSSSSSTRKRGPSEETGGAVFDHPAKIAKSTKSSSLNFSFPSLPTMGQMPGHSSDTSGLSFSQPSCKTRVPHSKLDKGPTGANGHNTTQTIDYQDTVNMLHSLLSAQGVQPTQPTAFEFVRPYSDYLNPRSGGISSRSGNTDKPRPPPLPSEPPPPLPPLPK
Method in brief: as §1

[1] = test system: human acute myeloid leukemia MV-4-11 cells; assay: Assay of cell proliferation (CellTiter-Glo); assay type: cell-based; conditions: MV4-11, 144 h, 6 days, read-out: MV-4-11 IC50 of cell proliferation inhibitory activity
Method in brief: (§2)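 Cells seeded per line at growth-adapted densities, treated 6 days at 37 °C/5% CO2 with nine 3-fold dilutions (10 µM to 0.1 nM final, 0.5% DMSO). Viability by CellTiter-Glo luminescence; IC50 from four-parameter fit.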

[2] = test system: human breast cancer MCF-7 cells; assay: Assay of cell proliferation (CellTiter-Glo); assay type: cell-based; conditions: 144 h, MCF7 cells, 6 days, read-out: MCF7 IC50 of cell proliferation inhibitory activity
Method in brief: as §2

Chain of CDK6/cyclin D3 (Q00534 whole entry, species assumed): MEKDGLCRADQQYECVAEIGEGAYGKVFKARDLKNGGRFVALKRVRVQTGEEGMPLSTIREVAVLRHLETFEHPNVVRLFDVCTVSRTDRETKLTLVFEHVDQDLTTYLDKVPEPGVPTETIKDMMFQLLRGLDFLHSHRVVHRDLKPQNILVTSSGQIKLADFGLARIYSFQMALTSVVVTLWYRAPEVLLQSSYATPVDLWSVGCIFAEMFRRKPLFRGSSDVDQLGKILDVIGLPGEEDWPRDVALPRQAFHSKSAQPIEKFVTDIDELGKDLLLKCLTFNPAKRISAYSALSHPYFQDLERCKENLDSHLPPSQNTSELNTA
Chain of CDK6/cyclin D3 (P30281 whole entry partner, species assumed): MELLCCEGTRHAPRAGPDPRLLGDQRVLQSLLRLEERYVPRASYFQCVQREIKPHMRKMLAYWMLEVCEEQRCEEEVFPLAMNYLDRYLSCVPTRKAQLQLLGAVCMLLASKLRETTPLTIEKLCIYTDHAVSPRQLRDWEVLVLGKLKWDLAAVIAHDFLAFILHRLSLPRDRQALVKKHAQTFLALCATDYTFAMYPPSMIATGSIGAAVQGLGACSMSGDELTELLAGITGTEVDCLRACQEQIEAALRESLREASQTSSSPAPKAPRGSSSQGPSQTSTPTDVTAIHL

IC50 (CDK6/cyclin D3): 4 nM | IC50 (CDK9/cyclin T1): 2 nM | IC50 [1]: 4 nM | IC50 [2]: 11 nM
SMILES: CC(C)n1nnc2ccc3cnc(Nc4ccc(C(=O)N5CC[C@H](N(C)C)C5)cc4)nc3c21 [Example I-10, (S)-(3-(Dimethylamino)pyrrolidin-1-yl)(4-((1-isopropyl-1H-[1,2,3]triazolo[4,5-H]quinazolin-8-yl)amino)phenyl)metha none]
